Consider 21 compounds from patent publication US20240254118A1, “PRMT5 INHIBITORS AND USES THEREOF” (Gilead Sciences, Inc., priority 2022, published 2024).

pEC50: −log10 of the molar value.

In test [1] the test system is SDMA signal (PRMT5 inhibition) in HCT116 MTAP-deleted cells. The test is described as follows: Symmetric di-methyl arginine image-based high content screen assay (SDMA assay), HCT116 MTAP-deleted. The conditions noted are these: SDMA assay; for pEC50: Homo sapiens, HCT-116, 72 h, 3 days of treatment, cell line not given, taken as HCT116 MTAP-deleted, read-out: EC50 (SDMA assay). Format: cell-based. The procedure, abridged: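 Read-out: per-cell mean SDMA immunofluorescence (Alexa Fluor 488 secondary), cells segmented by DAPI on a high-content imager. Compound exposure in HCT116 MTAP-deleted cells lasted until fixation on Day 3; overnight 4° C primary anti-SDMA antibody staining.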

Test [2] concerns HCT116 MTAP-deleted cells. The test is described as follows: Cell viability assay (CellTiter-Glo, 7 days), HCT116 MTAP-deleted. Conditions: Homo sapiens, HCT-116, 168 h.
[3] abbreviates: taken as HCT116 WT versus MTAP-deleted.

On to `CN(C(=O)C1CC1)N(Cc1cc(F)c(-c2cnn(C(F)(F)F)c2)cc1F)C(=O)c1ccc2nc(N)c3cnn(C)c3c2c1` [Example 311, 4-amino-N′-(cyclopropanecarbonyl)-N-(2,5-difluoro-4-(1-(trifluoromethyl)-1H-pyrazol-4-yl)benzyl)-N′,1-dimethyl-1H-pyrazolo[4,3-c]quinoline-8-carbohydrazide], for which the negative logarithm of the EC50 (pEC50) in test [1] was 8.30 to 9.00. The “EC50 selectivity (SDMA assay)” value in test [1] (setting [3]) amounted to 58. Besides, in test [2], the 50% cytotoxic concentration (CC50) is less than 100 nM.
With `CN(C(=O)C1CC1)N(Cc1ccc2nc(C(F)(F)F)sc2c1)C(=O)c1ccc2nc(N)c3cnn(C)c3c2c1` [Example 323, 4-amino-N′-(cyclopropanecarbonyl)-N′,1-dimethyl-N-((2-(trifluoromethyl)benzo[d]thiazol-6-yl)methyl)-1H-pyrazolo[4,3-c]quinoline-8-carbohydrazide], in test [1], the negative-log EC50 (pEC50) is 8.30 to 9.00. In test [1] (setting [3]), the “EC50 selectivity (SDMA assay)” value was determined as 44. The same compound returned a CC50 in test [2] of less than 100 nM.
For `Cn1ncc2c(N)nc3cc(F)c(C(=O)N(Cc4ccc(C(F)(F)F)nc4)N4CCCC4=O)cc3c21` [Example 57, 4-amino-7-fluoro-1-methyl-N-(2-oxopyrrolidin-1-yl)-N-((6-(trifluoromethyl)pyridin-3-yl)methyl)-1H-pyrazolo[4,3-c]quinoline-8-carboxamide], the negative logarithm of the EC50 (pEC50) in test [1] is 8.30 to 9.00. The “EC50 selectivity (SDMA assay)” value in test [1] (setting [3]) came out at 108. The CC50 in test [2] was less than 100 nM.
For `CN(C(=O)C1CC1)N(Cc1ccc2c(c1)OC(F)(F)O2)C(=O)c1ccc2nc(N)c3cnn(C)c3c2c1` [Example 283, 4-amino-N′-(cyclopropanecarbonyl)-N-((2,2-difluorobenzo[d][1,3]dioxol-5-yl)methyl)-N′,1-dimethyl-1H-pyrazolo[4,3-c]quinoline-8-carbohydrazide] the same measures were greater than 9.00, 80 and less than 100 nM.
For `Cn1ncc2c(N)nc3ccc(C(=O)N(Cc4ccc(C(C)(C)O)nc4)N4CCCCC4=O)cc3c21` [Example 66, 4-amino-N-[[6-(1-hydroxy-1-methyl-ethyl)-3-pyridyl]methyl]-1-methyl-N-(2-oxo-1-piperidyl)pyrazolo[4,3-c]quinoline-8-carboxamide], the pEC50 in test [1] is less than 8.30. Further, in test [1] (setting [3]), the “EC50 selectivity (SDMA assay)” value was 281. This compound also came in with a CC50 in test [2] of 100 to 1000 nM.
Turning to `CC(=O)N(C)N(Cc1ccc2scnc2c1)C(=O)c1cc2c(cc1F)nc(N)c1cnn(C)c12` [Example 328, N′-acetyl-4-amino-N-(benzo[d]thiazol-5-ylmethyl)-7-fluoro-N′,1-dimethyl-1H-pyrazolo[4,3-c]quinoline-8-carbohydrazide], the negative-log EC50 (pEC50) in test [1] was 8.30 to 9.00. In addition, in test [1] (setting [3]), the “EC50 selectivity (SDMA assay)” value was determined as 143. In addition, in test [2], the CC50 is less than 100 nM.
`CN(CC1CCC1)N(Cc1ccc(C(F)(F)F)cn1)C(=O)c1cc2c(cc1F)nc(N)c1cnn(C)c12` [Example 453, 4-amino-N′-(cyclobutylmethyl)-7-fluoro-N′,1-dimethyl-N-((5-(trifluoromethyl)pyridin-2-yl)methyl)-1H-pyrazolo[4,3-c]quinoline-8-carbohydrazide]: in test [1], the pEC50 was greater than 9.00. Besides, the “EC50 selectivity (SDMA assay)” value in test [1] (taken as HCT116 WT vs MTAP-deleted) turned out to be 15. The compound also came in with a CC50 in test [2] of less than 100 nM.
As for `CC(=O)N(C)N(Cc1ccc2nc(C)oc2c1)C(=O)c1ccc2nc(N)c3cnn(C)c3c2c1` [Example 335, N′-acetyl-4-amino-N′,1-dimethyl-N-((2-methylbenzo[d]oxazol-6-yl)methyl)-1H-pyrazolo[4,3-c]quinoline-8-carbohydrazide], the negative-log EC50 (pEC50) in test [1] is 8.30 to 9.00. In addition, in test [1] (setting [3]), the “EC50 selectivity (SDMA assay)” value stood at 272. For the same compound, in test [2], the half-maximal cytotoxic concentration (CC50) is less than 100 nM.
On to `CC(=O)N(c1ncccn1)N(Cc1ccc(C(F)(F)F)cn1)C(=O)c1ccc2nc(N)c3cnn(C)c3c2c1` [Example 114, N′-acetyl-4-amino-1-methyl-N′-pyrimidin-2-yl-N-[[5-(trifluoromethyl)-2-pyridyl]methyl]pyrazolo[4,3-c]quinoline-8-carbohydrazide], for which the negative logarithm of the EC50 (pEC50) in test [1] is greater than 9.00. In addition, the “EC50 selectivity (SDMA assay)” value in test [1] (setting [3]) is 32. In test [2], this compound registered a half-maximal cytotoxic concentration (CC50) of less than 100 nM.
On to `CN(C(=O)c1ccncc1)N(Cc1ccc(C(F)(F)F)cn1)C(=O)c1ccc2nc(N)c3cnn(C)c3c2c1` [Example 113, 4-amino-N′,1-dimethyl-N′-(pyridine-4-carbonyl)-N-[[5-(trifluoromethyl)-2-pyridyl]methyl]pyrazolo[4,3-c]quinoline-8-carbohydrazide], for which, in test [1], the pEC50 is 8.30 to 9.00. Besides, the “EC50 selectivity (SDMA assay)” value in test [1] (setting [3]) came out at 404. The same compound came in with a half-maximal cytotoxic concentration (CC50) in test [2] of 100 to 1000 nM.
Consider `Cn1ncc2c(N)nc3ccc(C(=O)N(Cc4ccc(C(F)(F)F)cc4F)N4CCCCC4=O)cc3c21` [Example 2, 4-amino-N-(2-fluoro-4-(trifluoromethyl)benzyl)-1-methyl-N-(2-oxopiperidin-1-yl)-1H-pyrazolo[4,3-c]quinoline-8-carboxamide], for which the negative logarithm of the EC50 (pEC50) in test [1] was greater than 9.00. Moreover, the “EC50 selectivity (SDMA assay)” value in test [1] (setting [3]) worked out at 25. For the same compound, the CC50 in test [2] is less than 100 nM.
For the compound `CN(C(=O)c1nccn1C)N(Cc1ccc(C(F)(F)F)cn1)C(=O)c1ccc2nc(N)c3cnn(C)c3c2c1` [Example 158, 4-amino-N′,1-dimethyl-N′-(1-methyl-1H-imidazole-2-carbonyl)-N-((5-(trifluoromethyl)pyridin-2-yl)methyl)-1H-pyrazolo[4,3-c]quinoline-8-carbohydrazide], the negative logarithm of the EC50 (pEC50) in test [1] was greater than 9.00. Besides, the “EC50 selectivity (SDMA assay)” value in test [1] (setting [3]) was 4. In addition, in test [2], the CC50 was less than 100 nM.
With `CC(=O)N(N(Cc1ccc(C(F)(F)F)cn1)C(=O)c1ccc2nc(N)c3cnn(C)c3c2c1)C12CC(C1)C2` [Example 107, N′-acetyl-4-amino-N′-(1-bicyclo[1.1.1]pentanyl)-1-methyl-N-[[5-(trifluoromethyl)-2-pyridyl]methyl]pyrazolo[4,3-c]quinoline-8-carbohydrazide], the negative-log EC50 (pEC50) in test [1] was greater than 9.00. Besides, in test [1] (setting [3]), the “EC50 selectivity (SDMA assay)” value is listed as 163. In test [2], this compound yielded a CC50 of less than 100 nM.
Consider `CC(=O)N(C)N(Cc1ccc(OC(F)F)cc1F)C(=O)c1ccc2nc(N)c3cnn(C)c3c2c1` [Example 77, N′-acetyl-4-amino-N-(4-(difluoromethoxy)-2-fluorobenzyl)-N′,1-dimethyl-1H-pyrazolo[4,3-c]quinoline-8-carbohydrazide], for which, in test [1], the pEC50 is greater than 9.00. For the same compound, the “EC50 selectivity (SDMA assay)” value in test [1] (setting [3]) was 69. This compound also showed a CC50 in test [2] of less than 100 nM.
`Cn1ncc2c(N)nc3ccc(C(=O)N(Cc4nc5cc(C(F)(F)F)ccc5s4)N4CCOC4=O)cc3c21` [Example 89, 4-Amino-1-methyl-N-(2-oxooxazolidin-3-yl)-N-[[5-(trifluoromethyl)-1,3-benzothiazol-2-yl]methyl]pyrazolo[4,3-c]quinoline-8-carboxamide]: in test [1], the negative logarithm of the EC50 (pEC50) was greater than 9.00. For the same compound, the “EC50 selectivity (SDMA assay)” value in test [1] (setting [3]) is on record as 204. Further, the cytotoxic concentration (CC50) in test [2] was less than 100 nM.
For `CN(C(=O)N1CC(F)C1)N(Cc1ccc(C(F)(F)F)cn1)C(=O)c1ccc2nc(N)c3cnn(C)c3c2c1` [Example 156, 4-amino-N′-(3-fluoroazetidine-1-carbonyl)-N′,1-dimethyl-N-((5-(trifluoromethyl)pyridin-2-yl)methyl)-1H-pyrazolo[4,3-c]quinoline-8-carbohydrazide] the same measures were greater than 9.00, 34 and less than 100 nM.
As for `CN(C(=O)C1CC1)N(Cc1cnc(C(F)(F)F)c(F)c1)C(=O)c1ccc2nc(N)c3cnn(C)c3c2c1` [Example 279, 4-amino-N′-(cyclopropanecarbonyl)-N-((5-fluoro-6-(trifluoromethyl)pyridin-3-yl)methyl)-N′,1-dimethyl-1H-pyrazolo[4,3-c]quinoline-8-carbohydrazide], in test [1], the pEC50 is 8.30 to 9.00. Moreover, in test [1] (setting [3]), the “EC50 selectivity (SDMA assay)” value came to 494. Besides, the cytotoxic concentration (CC50) in test [2] is 100 to 1000 nM.
Turning to `CC(=O)N(C)N(Cc1ccc(-c2ccnn2C)cc1F)C(=O)c1ccc2nc(N)c3cnn(C)c3c2c1` [Example 243, N′-acetyl-4-amino-N-(2-fluoro-4-(1-methyl-1H-pyrazol-5-yl)benzyl)-N′,1-dimethyl-1H-pyrazolo[4,3-c]quinoline-8-carbohydrazide], the negative-log EC50 (pEC50) in test [1] is greater than 9.00. Further, the “EC50 selectivity (SDMA assay)” value in test [1] (setting [3]) was 171. For the same compound, in test [2], the 50% cytotoxic concentration (CC50) was less than 100 nM.
The corresponding values for `Cn1ncc2c(N)nc3cc(F)c(C(=O)N(Cc4ccc(C(F)(F)F)cn4)N4C[C@H]5C[C@@H]4CO5)cc3c21` [Example 300, 4-amino-N-((1R,4R)-2-oxa-5-azabicyclo[2.2.1]heptan-5-yl)-7-fluoro-1-methyl-N-((5-(trifluoromethyl)pyridin-2-yl)methyl)-1H-pyrazolo[4,3-c]quinoline-8-carboxamide] are greater than 9.00, 24 and less than 100 nM.
Regarding `CN(C(=O)C1CC1)N(Cc1ccc(C(F)(F)F)nc1)C(=O)c1ccc2nc(N)c3cnn(C)c3c2c1` [Example 393, 4-amino-N′-(cyclopropanecarbonyl)-N′,1-dimethyl-N-[[6-(trifluoromethyl)-3-pyridyl]methyl]pyrazolo[4,3-c]quinoline-8-carbohydrazide], in test [1], the pEC50 is 8.30 to 9.00. In addition, the “EC50 selectivity (SDMA assay)” value in test [1] (setting [3]) is 380. Also, the CC50 in test [2] was less than 100 nM.
Turning to `CCN(C(=O)C1CC1)N(Cc1ccc(C(F)(F)F)cn1)C(=O)c1cc2c(cc1F)nc(N)c1cnn(C)c12` [Example 286, 4-amino-N′-(cyclopropanecarbonyl)-N′-ethyl-7-fluoro-1-methyl-N-((5-(trifluoromethyl)pyridin-2-yl)methyl)-1H-pyrazolo[4,3-c]quinoline-8-carbohydrazide], the pEC50 in test [1] is greater than 9.00. For the same compound, the “EC50 selectivity (SDMA assay)” value in test [1] (setting [3]) came out at 16. The CC50 in test [2] was less than 100 nM.
